{"source": "patent US5677459A", "about": "“Methods for the preparation of modulators of acetylcholine receptors” (Sibia Neurosciences, Inc., priority 1995, dated 1997)", "data": [{"test_system": "rats with unilateral 6-hydroxydopamine lesions of the nigrostriatal dopamine pathway", "format": "in vivo, rat (male Sprague-Dawley)", "details": "20 mg/kg, s.c., per one hour interval", "procedure": "Selective lesions of the brain dopamine pathway using the neurotoxin 6-hydroxydopamine (6-OHDA) in rats can be used as an experimental approach to Parkinson's disease. Unilateral lesions of the nigrostriatal dopamine pathway induce a postural asymmetry which becomes manifested as rotation when the animals are activated by dopamine releasers or dopamine agonists. When amphetamine and other stimulant drugs that induce pre-synaptic release of dopamine from intact nerve terminals are administered, the rats rotate in a direction ipsilateral to the lesion. In contrast, when the rats are injected with post-synaptic dopamine receptor agonists, such as apomorphine, they turn in a contralateral direction, due to the development of supersensitive dopamine receptors in the lesioned side. Thus, the 6-OHDA model can be used to determine if a suspected dopaminergic agent is active, and to differentiate whether such action is pre- or post-synaptic.\nThe effects of invention compounds on rotational behavior in 6-hydroxydopamine denervated rats were evaluated using the procedure of Ungerstedt and Arbutknott, Brain Res. 24:485-493 (1970). Male Sprague-Dawley rats (Zivic Miller) weighing 170-200 gm were used in the 6-OHDA procedure. The ascending nigrostriatal dopamine pathway was lesioned by unilateral stereotaxic injection of 6-OHDA (8.0 μg) into one substantia nigra. All injections of 6-OHDA were preceded by desmethylimipramine (25 mg/kg i.p.) and pargyline (75 mg/kg i.p.) approximately 30 minutes prior to undergoing stereotaxic surgery for 6-OHDA infusion into the substantia nigra. After one week of recovery from surgery, the effectiveness of the lesions was verified by noting the response of the animals to apomorphine (0.2 mg/kg, s.c.). Only rats with a minimum rate of 80 contralateral turns per 30 minutes (a sign of more than 80-90% dopamine depletion after a 6-OHDA lesion) were used. Two weeks later, the selected rats were tested with invention and reference compounds using an automated rotometer system to record the number and direction of rotations. In order to distinguish spontaneous (non-specific)rotations from induced rotations (specific to the effect of the drug), each rat was used as its own control, employing the following procedure:\nThe rat was placed in the rotometer system for acclimatation for 15 minutes, the vehicle administered subcutaneously, the rat's rotations recorded for one hour, then test compound was administered s.c. and rotations again recorded for one hour. The number of ipsilateral rotations induced by vehicle was then compared to the number of ipsilateral rotations induced by test compound. Statistical analysis of the data was carried out using Student's t-test (paired).", "values": [{"compound": "C#Cc1cncc(C2CCCN2C)c1.O=C(O)/C=C/C(=O)O", "note": "(racemic) [R^5 = ethynyl (racemic), 5-Ethynyl-3-(1-methyl-2-pyrrolidinyl)pyridine fumarate]", "Percent change from control (ipsilateral rotations)": "+406%"}, {"compound": "CN1CCCC1c1cncc(-c2ccc(O)c(Cl)c2)c1.O=C(O)/C=C/C(=O)O", "note": "(stereo not shown) [R^5 = 3-chloro-4-hydroxyphenyl, 5-(4-hydroxy-3-chlorophenyl)-3-(1-methyl-2-pyrrolidinyl)pyridine fumarate]", "Percent change from control (ipsilateral rotations)": "-40%"}, {"compound": "CN1CCCC1c1cncc(-c2cccc(Cl)c2)c1.O=C(O)/C=C/C(=O)O", "note": "(stereo not shown) [R^5 = 3-chlorophenyl, 5-(3-Chlorophenyl)-3-(1-methyl-2-pyrrolidinyl) pyridine fumarate]", "Percent change from control (ipsilateral rotations)": "+62%"}, {"compound": "COc1ccc(-c2cncc(C3CCCN3C)c2)cc1F.O=C(O)/C=C/C(=O)O", "note": "(stereo not shown) [R^5 = 3-fluoro-4-methoxyphenyl, 5-(3-Fluoro-4-methoxyphenyl)-3-(1-methyl-2-pyrrolidinyl)pyridine fumarate]", "Percent change from control (ipsilateral rotations)": "-3%"}]}]}
